Laboratory results as given in US20240417393A1, “CERTAIN 2,5-DIAZABICYCLO[4.2.0]OCTANES AS GLP-1 RECEPTOR MODULATORS” (ASTRAZENECA AB, priority 2021, published 2024).

Assays:
[1] = target: T1, human phosphodiesterase-3A (Homo sapiens, UniProt Q14432); experiment: PDE3 Assay ([3H]cAMP to 5'AMP, SPA); assay type: biochemical; conditions: human recombinant PDE3A expressed in Sf9 cells; 450 nM cAMP; 20 min at 22° C.
T1 construct: host or cells: Sf9 (Spodoptera frugiperda) cells
Experimental: Evaluation of the effects of compounds on the activity of the human phosphodiesterase-3A is quantified by measuring the formation of 5′AMP from cAMP using a human recombinant is enzyme expressed in a clonal isolate of Spodoptera frugiperda cells (Sf9) cells.
The test compound, reference compound or water (control) are added to a buffer containing 40 mM tris(hydroxymethyl)aminomethane (Tris)/HCl (pH 7.4) and 8 mM MgCl2, 450 nMcAMP and 0.25 μCi [^3H]cAMP.
Thereafter, the reaction is initiated by addition of the enzyme (about 1U) and the mixture is incubated for 20 min at 22° C.
For basal control measurements, the enzyme is omitted from the reaction mixture.
Following incubation SPA beads are added. After 30 min at 22° C. under shaking, the amount of [^3H]5′AMP is quantified with a scintillation counter (Topcount, Packard).
The results are expressed as a percent inhibition of the control enzyme activity. The standard inhibitory reference compound is milrinone (CAS number 78415-72-2), which is tested in each experiment at several concentrations to obtain an inhibition curve from which its IC50 value is calculated.

human GLP-1R receptor = target: T2, human GLP-1R receptor (Homo sapiens, UniProt P43220, L260F); experiment: CHOK1 GLP-1R cAMP Assay (HTRF); assay type: cell-based; conditions: CHO-K1 cells stably expressing human GLP-1R (Leu260Phe variant), 20 min at rt
T2 construct: expressed in transfected cells; host or cells: CHO-K1 (ATCC CCL-61)

[2] = target: T3, GLP-1R in a pancreatic insulinoma cell line (EndoC-PH1) (Homo sapiens, UniProt P43220); experiment: EndoC cAMP Accumulation Assay (HTRF); assay type: cell-based; conditions: EndoC-PH1 human pancreatic beta cell line, endogenous GLP-1R, 30 min at rt
T3 construct: host or cells: EndoC-βH1 human pancreatic beta cell line
Method in brief: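 Thawed human EndoC-βH1 cells, about 3000 per well, stimulated with compound 30 min at room temperature in HBSS/HEPES pH 7.4 with 0.1% BSA and 0.5 mM IBMX; cAMP by competitive HTRF. Responses as % activation relative to maximal GIP (82.5 nM), 4-parameter logistic fit.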

T2 sequence (P43220 24-463 L260F): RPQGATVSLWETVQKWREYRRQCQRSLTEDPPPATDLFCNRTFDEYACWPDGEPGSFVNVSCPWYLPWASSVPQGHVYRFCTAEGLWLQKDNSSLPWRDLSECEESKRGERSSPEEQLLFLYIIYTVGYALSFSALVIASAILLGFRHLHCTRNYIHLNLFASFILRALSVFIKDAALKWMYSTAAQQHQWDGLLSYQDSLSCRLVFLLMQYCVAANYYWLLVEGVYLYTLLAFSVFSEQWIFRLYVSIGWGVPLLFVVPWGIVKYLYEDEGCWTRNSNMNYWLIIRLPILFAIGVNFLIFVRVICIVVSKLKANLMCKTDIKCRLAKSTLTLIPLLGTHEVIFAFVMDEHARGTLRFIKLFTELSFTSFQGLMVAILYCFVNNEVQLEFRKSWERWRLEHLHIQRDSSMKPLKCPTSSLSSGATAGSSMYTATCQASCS
T1 sequence (Q14432 whole entry): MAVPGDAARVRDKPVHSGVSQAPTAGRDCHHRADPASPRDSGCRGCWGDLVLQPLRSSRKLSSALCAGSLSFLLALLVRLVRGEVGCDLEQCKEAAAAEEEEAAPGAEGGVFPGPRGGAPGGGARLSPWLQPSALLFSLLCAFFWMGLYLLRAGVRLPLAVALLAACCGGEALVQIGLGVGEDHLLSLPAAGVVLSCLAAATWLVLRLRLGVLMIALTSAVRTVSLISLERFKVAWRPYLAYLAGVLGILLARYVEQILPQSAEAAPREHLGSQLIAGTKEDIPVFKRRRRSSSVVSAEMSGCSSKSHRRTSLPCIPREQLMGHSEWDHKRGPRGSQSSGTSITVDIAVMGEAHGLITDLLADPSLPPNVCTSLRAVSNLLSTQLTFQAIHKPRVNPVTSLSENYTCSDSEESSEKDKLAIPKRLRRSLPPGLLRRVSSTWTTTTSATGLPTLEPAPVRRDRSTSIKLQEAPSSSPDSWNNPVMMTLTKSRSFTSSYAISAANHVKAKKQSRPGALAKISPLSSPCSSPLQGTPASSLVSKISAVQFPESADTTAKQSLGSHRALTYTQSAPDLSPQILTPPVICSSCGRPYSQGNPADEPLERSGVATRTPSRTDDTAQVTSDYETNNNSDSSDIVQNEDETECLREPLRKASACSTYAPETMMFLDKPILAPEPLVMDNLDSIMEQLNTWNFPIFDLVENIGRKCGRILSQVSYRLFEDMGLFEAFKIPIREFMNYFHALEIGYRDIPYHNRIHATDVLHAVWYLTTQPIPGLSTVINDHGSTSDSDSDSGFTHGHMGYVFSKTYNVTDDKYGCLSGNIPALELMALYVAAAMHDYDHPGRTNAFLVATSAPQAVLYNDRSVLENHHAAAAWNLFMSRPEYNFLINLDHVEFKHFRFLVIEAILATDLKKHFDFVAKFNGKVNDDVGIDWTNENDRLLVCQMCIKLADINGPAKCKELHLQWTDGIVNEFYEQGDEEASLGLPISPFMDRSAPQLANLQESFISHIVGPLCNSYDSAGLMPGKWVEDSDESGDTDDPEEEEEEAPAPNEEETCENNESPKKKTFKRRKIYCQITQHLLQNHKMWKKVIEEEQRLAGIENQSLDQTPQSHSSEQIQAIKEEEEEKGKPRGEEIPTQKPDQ
T3 sequence (P43220 24-463): as the sequence (P43220 24-463 L260F) above, with F237L counted along it

IC50 [1] [nM]	EC50 (human GLP-1R receptor) [nM]	EC50 [2] [nM]	SMILES
> 100000	1.9	6.5	C[C@]1(c2ccc(Cl)cn2)Oc2cccc(N3CCN(Cc4nc5ccc(C(=O)O)cc5n4C[C@@H]4CCO4)[C@H]4CC[C@H]43)c2O1 (single isomer, unassigned) [Example 5a, 2-((1R*,6S*)-5-(R*)-2-(5-Chloropyridin-2-yl)-2-methylbenzo[d][1,3]dioxol-4-yl)-2,5-diazabicyclo[4.2.0]octan-2-yl)methyl)-1-(((S)-oxetan-2-yl)methyl)-1H-benzo[d]imidazole-6-carboxylic acid]
> 100000	2.5	6.1	COc1cc(C(=O)O)cc2c1nc(CN1CCN(c3cccc4c3O[C@@](C)(c3ccc(Cl)cn3)O4)[C@H]3CC[C@@H]31)n2C[C@@H]1CCCO1 (single isomer, unassigned) [Example 7b, 2-(((1R*,6R*)-5-((R*)-2-(5-Chloropyridin-2-yl)-2-methylbenzo[d][1,3]dioxol-4-yl)-2,5-diazabicyclo[4.2.0]octan-2-yl)methyl)-4-methoxy-1-(((S)-tetrahydrofuran-2-yl)methyl)-1H-benzo[d]imidazole-6-carboxylic acid]
> 100000	1.6	2.6	COc1cc(C(=O)O)cc2c1nc(CN1CCN(c3cccc4c3O[C@@](C)(c3ccc(Cl)cn3)O4)[C@@H]3CC[C@@H]31)n2C[C@@H]1CCCO1 (single isomer, unassigned) [Example 8c]

The remaining lines, values behind:

SMILES	IC50 [1] [nM]	EC50 (human GLP-1R receptor) [nM]	EC50 [2] [nM]
C[C@]1(c2ccc(Cl)cc2F)Oc2cccc(N3CCN(Cc4nc5c(F)cc(C(=O)O)cc5n4C[C@@H]4CCO4)[C@H]4CC[C@H]43)c2O1 (single isomer, unassigned) [Example 9b]	> 100000	0.8	3.3
CCn1ccnc1Cn1c(CN2CCN(c3cccc4c3O[C@@](C)(c3ccc(Cl)cn3)O4)[C@H]3CC[C@@H]32)nc2c(Cl)cc(C(=O)O)cc21 (single isomer, unassigned) [Example 10a]	> 100000	0.9	3.5
